Key:
StGSH1 (monomer) = target: T1, StGSH1 (monomer) (Solanum tuberosum, UniProt M1AWB9); experiment: coupled pyruvate kinase/lactate dehydrogenase assay of ADP formation, A340; format: biochemical; conditions: standard reaction: pH 8.0, 100 mM Tris, 150 mM KCl, 20 mM MgCl2, 10 mM L-cysteine, 20 mM L-glutamate, read-out: ATP
T1 construct: gene LOC102600891; pET32a, E. coli BL21(DE3); His tag removed by TEV; monomer separated on Mono Q
T1 sequence (M1AWB9 74-523): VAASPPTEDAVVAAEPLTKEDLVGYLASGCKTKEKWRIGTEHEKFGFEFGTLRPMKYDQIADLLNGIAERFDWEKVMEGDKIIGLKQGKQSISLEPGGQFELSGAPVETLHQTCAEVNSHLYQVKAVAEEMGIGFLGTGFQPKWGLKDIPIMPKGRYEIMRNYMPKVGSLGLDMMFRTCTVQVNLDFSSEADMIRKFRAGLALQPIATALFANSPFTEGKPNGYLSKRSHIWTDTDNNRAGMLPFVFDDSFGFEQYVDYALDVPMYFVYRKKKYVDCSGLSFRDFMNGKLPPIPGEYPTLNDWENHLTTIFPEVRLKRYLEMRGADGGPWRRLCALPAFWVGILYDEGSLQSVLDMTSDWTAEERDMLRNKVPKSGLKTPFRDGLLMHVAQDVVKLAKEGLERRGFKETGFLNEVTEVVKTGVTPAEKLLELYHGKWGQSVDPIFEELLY
Text: coupled pyruvate kinase/lactate dehydrogenase assay of ADP formation, A340 on StGSH1 (monomer)

StGSH1 (dimer) = target: T2, StGSH1 (dimer) (Solanum tuberosum, UniProt M1AWB9); experiment: as above; format: biochemical; conditions: standard reaction: pH 8.0, 100 mM Tris, 150 mM KCl, 20 mM MgCl2, 10 mM L-cysteine, 20 mM L-glutamate; homo-dimer; read-out: ATP
T2 construct: gene LOC102600891; pET32a, E. coli BL21(DE3); His tag removed by TEV; homodimer separated on Mono Q
T2 sequence (M1AWB9 74-523): T1 sequence (M1AWB9 74-523)
Text: coupled pyruvate kinase/lactate dehydrogenase assay of ADP formation, A340 on StGSH1 (dimer)

## Nc1ncnc2c1ncn2[C@@H]1O[C@H](COP(=O)(O)OP(=O)(O)OP(=O)(O)O)[C@@H](O)[C@H]1O [ATP]
StGSH1 (monomer)
  Km: 2410 ± 360 µM
StGSH1 (dimer)
  Km: 1000 ± 300 µM
